In ChEMBL document CHEMBL2413072, “Synthesis and in vitro anticancer studies of novel C-2 arylidene congeners of lantadenes” (2013):

Legend:
Format in all cases: functional
LOX IMVI = experiment: Growth inhibition of human LOXIMVI cells assessed as cell growth at 10^-4 M by sulforhodamine B assay; details: read-out: Activity
786-0 = experiment: Growth inhibition of human 786-0 cells assessed as cell growth at 10 uM by sulforhodamine B assay; details: read-out: Activity
HOP-62 [1] = experiment: Growth inhibition of human HOP62 cells assessed as cell growth at 10^-8 M by sulforhodamine B assay; details: read-out: Activity
SNB-19 [2] = experiment: Growth inhibition of human SNB19 cells assessed as cell growth at 10^-6 M by sulforhodamine B assay; details: read-out: Activity
[3] = Growth inhibition of human NCI-ADR-RES cells assessed as growth inhibition at 10 uM by sulforhodamine B assay; details: read-out: GI
COLO 205 [4] = experiment: Growth inhibition of human COLO205 cells assessed as cell growth at 10^-4 M by sulforhodamine B assay; details: read-out: Activity
HCT-15 [5] = experiment: Growth inhibition of human HCT15 cells assessed as cell growth at 10^-6 M by sulforhodamine B assay; details: read-out: Activity
T47D [6] = experiment: Growth inhibition of human T47D cells assessed as cell growth at 10^-6 M by sulforhodamine B assay; details: read-out: Activity
SK-MEL-2 [7] = experiment: Growth inhibition of human SK-MEL-2 cells by sulforhodamine B assay
SK-OV-3 = experiment: Growth inhibition of human SKOV3 cells assessed as cell growth at 10 uM by sulforhodamine B assay; details: read-out: Activity
A498 = experiment: Growth inhibition of human A498 cells assessed as cell growth at 10 uM by sulforhodamine B assay; details: read-out: Activity
[8] = Growth inhibition of human EKVX cells assessed as cell growth at 10 uM by sulforhodamine B assay; details: read-out: Activity
SNB-19 [9] = experiment: Growth inhibition of human SNB19 cells assessed as cell growth at 10 uM by sulforhodamine B assay; details: read-out: Activity
OVCAR-4 = experiment: Growth inhibition of human OVCAR4 cells assessed as cell growth at 10^-7 M by sulforhodamine B assay; details: read-out: Activity
HOP-62 [10] = experiment: Growth inhibition of human HOP62 cells assessed as cell growth at 10^-4 M by sulforhodamine B assay; details: read-out: Activity
TK-10 = experiment: Growth inhibition of human TK10 cells assessed as cell growth at 10 uM by sulforhodamine B assay; details: read-out: Activity
PC-3 = experiment: Growth inhibition of human PC3 cells assessed as cell growth at 10^-7 M by sulforhodamine B assay; details: read-out: Activity
DU-145 = experiment: Growth inhibition of human DU145 cells assessed as cell growth at 10 uM by sulforhodamine B assay; details: read-out: Activity
NCI-H322M = experiment: Growth inhibition of human NCI-H322M cells assessed as cell growth at 10^-7 M by sulforhodamine B assay; details: read-out: Activity
KM12 [11] = experiment: Growth inhibition of human KM12 cells assessed as growth inhibition at 10 uM by sulforhodamine B assay; details: read-out: GI
SK-MEL-2 [12] = experiment: Growth inhibition of human SK-MEL-2 cells assessed as growth inhibition at 10 uM by sulforhodamine B assay; details: read-out: GI
HCT-15 [13] = experiment: Growth inhibition of human HCT15 cells by sulforhodamine B assay
NCI-H226 = experiment: Growth inhibition of human NCI-H226 cells assessed as cell growth at 10^-7 M by sulforhodamine B assay; details: read-out: Activity
T47D [14] = experiment: Growth inhibition of human T47D cells assessed as growth inhibition at 10 uM by sulforhodamine B assay; details: read-out: GI
T47D [15] = experiment: Growth inhibition of human T47D cells assessed as cell growth at 10^-4 M by sulforhodamine B assay; details: read-out: Activity
SK-MEL-5 = experiment: Growth inhibition of human SK-MEL-5 cells assessed as growth inhibition at 10 uM by sulforhodamine B assay; details: read-out: GI
SNB-19 [16] = experiment: Growth inhibition of human SNB19 cells assessed as growth inhibition at 10 uM by sulforhodamine B assay; details: read-out: GI
HT-29 = experiment: Growth inhibition of human HT-29 cells assessed as cell growth at 10 uM by sulforhodamine B assay; details: read-out: Activity
K562 = experiment: Growth inhibition of human K562 cells assessed as cell growth at 10 uM by sulforhodamine B assay; details: read-out: Activity
KM12 [17] = experiment: Growth inhibition of human KM12 cells assessed as cell growth at 10^-4 M by sulforhodamine B assay; details: read-out: Activity
COLO 205 [18] = experiment: Growth inhibition of human COLO205 cells assessed as cell growth at 10 uM by sulforhodamine B assay; details: read-out: Activity
SW-620 = experiment: Growth inhibition of human SW620 cells assessed as cell growth at 10 uM by sulforhodamine B assay; details: read-out: Activity
BT-549 [19] = experiment: Growth inhibition of human BT549 cells by sulforhodamine B assay
HCT-15 [20] = experiment: Growth inhibition of human HCT15 cells assessed as growth inhibition at 10 uM by sulforhodamine B assay; details: read-out: GI
UACC-257 = experiment: Growth inhibition of human UACC257 cells assessed as cell growth at 10^-4 M by sulforhodamine B assay; details: read-out: Activity
SF-295 = experiment: Growth inhibition of human SF295 cells assessed as cell growth at 10^-6 M by sulforhodamine B assay; details: read-out: Activity
[21] = Growth inhibition of human Hs 578T cells assessed as growth inhibition at 10 uM by sulforhodamine B assay; details: read-out: GI
HCT-15 [22] = experiment: Growth inhibition of human HCT15 cells assessed as cell growth at 10^-7 M by sulforhodamine B assay; details: read-out: Activity
OVCAR-5 = experiment: Growth inhibition of human OVCAR5 cells assessed as growth inhibition at 10 uM by sulforhodamine B assay; details: read-out: GI
OVCAR-8 [23] = experiment: Growth inhibition of human OVCAR8 cells assessed as growth inhibition at 10 uM by sulforhodamine B assay; details: read-out: GI
OVCAR-8 [24] = experiment: Growth inhibition of human OVCAR8 cells assessed as cell growth at 10^-8 M by sulforhodamine B assay; details: read-out: Activity
ACHN = experiment: Growth inhibition of human ACHN cells assessed as growth inhibition at 10 uM by sulforhodamine B assay; details: read-out: GI
UO-31 = experiment: Growth inhibition of human UO31 cells assessed as cell growth at 10 uM by sulforhodamine B assay; details: read-out: Activity
RPMI-8226 = experiment: Growth inhibition of human RPMI8226 cells assessed as cell growth at 10^-7 M by sulforhodamine B assay; details: read-out: Activity
SR = experiment: Growth inhibition of human SR cells assessed as cell growth at 10^-7 M by sulforhodamine B assay; details: read-out: Activity
BT-549 [25] = experiment: Growth inhibition of human BT549 cells assessed as cell growth at 10^-7 M by sulforhodamine B assay; details: read-out: Activity
[26] = read-out: LC50 (the source's name)
[27] = read-out: pLC50 (the source's name) (converted)

Structure (SMILES): CC1(C)C[C@@H](O)[C@]2(C(=O)O)CC[C@]3(C)C(=CC[C@@H]4[C@@]5(C)C/C(=C\C=C\c6ccccc6)C(=O)C(C)(C)[C@@H]5CC[C@]43C)[C@@H]2C1
- growth at 100 µM (LOX IMVI): -90%
- growth at 10 µM (786-0): 78.1%
- growth at 0.01 µM (HOP-62 [1]): 93%
- growth at 1 µM (SNB-19 [2]): 88%
- inhibition of growth at 10 µM [3]: 23.8%
- growth at 100 µM (COLO 205 [4]): -61%
- growth at 1 µM (HCT-15 [5]): 95%
- growth at 1 µM (T47D [6]): 97%
- GI50 (SK-MEL-2 [7]; read-out: GI50): 2.35 µM
- CC50 (SK-MEL-2 [7]; [26]): 26.3 µM
- TGI (SK-MEL-2 [7]; read-out: TGI): 5.57 µM
- GI50 (SK-MEL-2 [7]; read-out: pGI50 (converted)): 2.34 µM
- CC50 (SK-MEL-2 [7]; [27]): 26.3 µM
- TGI (SK-MEL-2 [7]; read-out: pTGI (converted)): 5.62 µM
- growth at 10 µM (SK-OV-3): 85.7%
- growth at 10 µM (A498): 95.7%
- growth at 10 µM [8]: 39.4%
- growth at 10 µM (SNB-19 [9]): 73.4%
- growth at 0.1 µM (OVCAR-4): 96%
- growth at 100 µM (HOP-62 [10]): -57%
- growth at 10 µM (TK-10): 88.3%
- growth at 0.1 µM (PC-3): 96%
- growth at 10 µM (DU-145): 71.2%
- growth at 0.1 µM (NCI-H322M): 96%
- inhibition of growth at 10 µM (KM12 [11]): 68.2%
- inhibition of growth at 10 µM (SK-MEL-2 [12]): 35.4%
- GI50 (HCT-15 [13]; read-out: GI50): 3.22 µM
- LC50 (50% lethal concentration) (HCT-15 [13]; read-out: LC50): 45.1 µM
- TGI (HCT-15 [13]; read-out: TGI): 11.9 µM
- GI50 (HCT-15 [13]; read-out: pGI50 (converted)): 3.24 µM
- LC50 (50% lethal concentration) (HCT-15 [13]; read-out: pLC50 (converted)): 44.7 µM
- TGI (HCT-15 [13]; read-out: pTGI (converted)): 12 µM
- growth at 0.1 µM (NCI-H226): 92%
- inhibition of growth at 10 µM (T47D [14]): 62.4%
- growth at 100 µM (T47D [15]): -45%
- inhibition of growth at 10 µM (SK-MEL-5): 26.3%
- inhibition of growth at 10 µM (SNB-19 [16]): 26.6%
- growth at 10 µM (HT-29): 51.7%
- growth at 10 µM (K562): 32.4%
- growth at 100 µM (KM12 [17]): -76%
- growth at 10 µM (COLO 205 [18]): 97.8%
- growth at 10 µM (SW-620): 55.8%
- GI50 (BT-549 [19]; read-out: GI50): 3.84 µM
- CC50 (BT-549 [19]; [26]): 55.9 µM
- TGI (BT-549 [19]; read-out: TGI): 14.8 µM
- GI50 (BT-549 [19]; read-out: pGI50 (converted)): 3.8 µM
- CC50 (BT-549 [19]; [27]): 56.2 µM
- TGI (BT-549 [19]; read-out: pTGI (converted)): 14.8 µM
- inhibition of growth at 10 µM (HCT-15 [20]): 64.8%
- growth at 100 µM (UACC-257): -88%
- growth at 1 µM (SF-295): 88%
- inhibition of growth at 10 µM [21]: 41.6%
- growth at 0.1 µM (HCT-15 [22]): 96%
- inhibition of growth at 10 µM (OVCAR-5): < 10%
- inhibition of growth at 10 µM (OVCAR-8 [23]): 57%
- growth at 0.01 µM (OVCAR-8 [24]): 95%
- inhibition of growth at 10 µM (ACHN): 58.1%
- growth at 10 µM (UO-31): 40.3%
- growth at 0.1 µM (RPMI-8226): 99%
- growth at 0.1 µM (SR): 100%
- growth at 0.1 µM (BT-549 [25]): 103%
